{"source": "patent US11672759B2", "about": "(priority 2017, dated 2023)", "origin": "cited, not measured here", "details": "estimated"}
{"smiles": "COc1cc2c(c(OC)c1OC)-c1ccc(OC)c(=O)cc1[C@@H](NC(C)=O)CC2", "note": "[colchicine, N-((7S)-5,6,7,9-tetrahydro-1,2,3,10-tetramethoxy-9-oxobenzo(a)heptalen-7-yl)-acetamide]", "values": [{"measurement": "effective dose", "result": "approximately 0.015 mg/kg"}, {"measurement": "toxic dose", "result": "greater than 0.1 mg/kg"}, {"measurement": "typically lethal dose", "result": "approximately 0.8 mg/kg"}]}
